Experimental data published in PubChem BioAssay (NCI).
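Cells were grown in 96-well plates and exposed to each compound for 48 hours at five concentrations; endpoints were interpolated linearly between bracketing concentrations, or set to the highest concentration if not reached. TGI denotes the concentration required for complete inhibition of growth.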

Columns and labels:
Experiment in all cases: DTP human tumour cell line panel, 48 h
HT29 colon = system: HT29 colon
OVCAR-4 ovarian = system: OVCAR-4 ovarian
LOX IMVI melanoma = system: LOX IMVI melanoma
ACHN renal = system: ACHN renal
SR leukemia = system: SR leukemia
HOP-62 NSCLC = system: HOP-62 NSCLC
T-47D breast = system: T-47D breast
DU-145 prostate = system: DU-145 prostate
UO-31 renal = system: UO-31 renal
SK-MEL-2 melanoma = system: SK-MEL-2 melanoma
SNB-19 CNS = system: SNB-19 CNS
IGROV1 ovarian = system: IGROV1 ovarian
MALME-3M melanoma = system: MALME-3M melanoma
HOP-92 NSCLC = system: HOP-92 NSCLC
RPMI-8226 leukemia = system: RPMI-8226 leukemia
SF-295 CNS = system: SF-295 CNS
A549 NSCLC = system: A549 NSCLC
UACC-62 melanoma = system: UACC-62 melanoma
SK-MEL-5 melanoma = system: SK-MEL-5 melanoma
OVCAR-5 ovarian = system: OVCAR-5 ovarian
MCF7 breast = system: MCF7 breast
MDA-MB-231 breast = system: MDA-MB-231 breast
SN12C renal = system: SN12C renal
M14 melanoma = system: M14 melanoma
HS 578T breast = system: HS 578T breast
CCRF-CEM leukemia = system: CCRF-CEM leukemia
MOLT-4 leukemia = system: MOLT-4 leukemia
SW-620 colon = system: SW-620 colon
KM12 colon = system: KM12 colon
TK-10 renal = system: TK-10 renal
UACC-257 melanoma = system: UACC-257 melanoma
MDA-N = system: MDA-N
K-562 leukemia = system: K-562 leukemia
COLO 205 colon = system: COLO 205 colon
SK-MEL-28 melanoma = system: SK-MEL-28 melanoma
MDA-MB-435 = system: MDA-MB-435
RXF 393 renal = system: RXF 393 renal
NCI-H23 lung = system: NCI-H23 lung
BT-549 breast = system: BT-549 breast
SNB-75 CNS = system: SNB-75 CNS
HCT-116 colon = system: HCT-116 colon
NCI-H522 lung = system: NCI-H522 lung
A498 renal = system: A498 renal
OVCAR-3 ovarian = system: OVCAR-3 ovarian
NCI/ADR-RES ovarian = system: NCI/ADR-RES ovarian
SF-539 CNS = system: SF-539 CNS
SK-OV-3 ovarian = system: SK-OV-3 ovarian
HCT-15 colon = system: HCT-15 colon
PC-3 prostate = system: PC-3 prostate
U251 CNS = system: U251 CNS
SF-268 CNS = system: SF-268 CNS
EKVX NSCLC = system: EKVX NSCLC
CAKI-1 renal = system: CAKI-1 renal
NCI-H460 lung = system: NCI-H460 lung
NCI-H226 lung = system: NCI-H226 lung
HL-60(TB) leukemia = system: HL-60(TB) leukemia
786-0 renal = system: 786-0 renal
OVCAR-8 ovarian = system: OVCAR-8 ovarian
HCC-2998 colon = system: HCC-2998 colon
KM20L2 colon = system: KM20L2 colon
SNB-78 CNS = system: SNB-78 CNS
DLD-1 colon = system: DLD-1 colon
HOP-18 NSCLC = system: HOP-18 NSCLC
DMS 114 small cell lung = system: DMS 114 small cell lung
DMS 273 small cell lung = system: DMS 273 small cell lung

## CC(=O)NC(CS/N=N/c1nc[nH]c1C(N)=O)C(=O)O (configuration not stated)
HT29 colon
  TGI: > 100 µM
OVCAR-4 ovarian
  TGI: > 100 µM
LOX IMVI melanoma
  TGI: > 100 µM
ACHN renal
  TGI: > 100 µM
SR leukemia
  TGI: 0.0673 µM
HOP-62 NSCLC
  TGI: > 100 µM
T-47D breast
  TGI: > 100 µM
DU-145 prostate
  TGI: > 100 µM
UO-31 renal
  TGI: > 100 µM
SK-MEL-2 melanoma
  TGI: > 100 µM
SNB-19 CNS
  TGI: > 100 µM
IGROV1 ovarian
  TGI: > 100 µM
MALME-3M melanoma
  TGI: > 29.3 µM
HOP-92 NSCLC
  TGI: > 100 µM
RPMI-8226 leukemia
  TGI: > 31.6 µM
SF-295 CNS
  TGI: > 100 µM
A549 NSCLC
  TGI: > 100 µM
UACC-62 melanoma
  TGI: > 100 µM
SK-MEL-5 melanoma
  TGI: > 100 µM
OVCAR-5 ovarian
  TGI: > 100 µM
MCF7 breast
  TGI: > 100 µM
MDA-MB-231 breast
  TGI: > 27.8 µM
SN12C renal
  TGI: > 55.9 µM
M14 melanoma
  TGI: > 100 µM
HS 578T breast
  TGI: > 100 µM
CCRF-CEM leukemia
  TGI: > 23.1 µM
MOLT-4 leukemia
  TGI: > 36.1 µM
SW-620 colon
  TGI: > 100 µM
KM12 colon
  TGI: > 45.3 µM
TK-10 renal
  TGI: > 100 µM
UACC-257 melanoma
  TGI: > 100 µM
MDA-N
  TGI: > 100 µM
K-562 leukemia
  TGI: > 100 µM
COLO 205 colon
  TGI: > 100 µM
SK-MEL-28 melanoma
  TGI: > 100 µM
MDA-MB-435
  TGI: > 100 µM
RXF 393 renal
  TGI: > 100 µM
NCI-H23 lung
  TGI: > 100 µM
BT-549 breast
  TGI: > 100 µM
SNB-75 CNS
  TGI: > 100 µM
HCT-116 colon
  TGI: > 100 µM
NCI-H522 lung
  TGI: > 100 µM
A498 renal
  TGI: > 100 µM
OVCAR-3 ovarian
  TGI: > 100 µM
NCI/ADR-RES ovarian
  TGI: > 100 µM
SF-539 CNS
  TGI: > 100 µM
SK-OV-3 ovarian
  TGI: > 100 µM
HCT-15 colon
  TGI: > 100 µM
PC-3 prostate
  TGI: > 100 µM
U251 CNS
  TGI: > 100 µM
SF-268 CNS
  TGI: > 100 µM
EKVX NSCLC
  TGI: > 100 µM
CAKI-1 renal
  TGI: > 41.2 µM
NCI-H460 lung
  TGI: > 100 µM
NCI-H226 lung
  TGI: > 100 µM
HL-60(TB) leukemia
  TGI: > 23.7 µM
786-0 renal
  TGI: > 100 µM
OVCAR-8 ovarian
  TGI: > 100 µM
HCC-2998 colon
  TGI: > 27.9 µM

## COc1cc(C2C(C(=O)O)=C(CO)Oc3cc4c(cc32)OCO4)cc(OC)c1O (configuration not stated)
KM20L2 colon
  TGI: > 100 µM
HT29 colon
  TGI: > 100 µM
OVCAR-4 ovarian
  TGI: > 100 µM
SNB-78 CNS
  TGI: > 100 µM
LOX IMVI melanoma
  TGI: > 100 µM
ACHN renal
  TGI: > 100 µM
HOP-62 NSCLC
  TGI: > 100 µM
UO-31 renal
  TGI: > 100 µM
DLD-1 colon
  TGI: > 100 µM
SNB-19 CNS
  TGI: > 100 µM
IGROV1 ovarian
  TGI: > 100 µM
MALME-3M melanoma
  TGI: > 100 µM
HOP-92 NSCLC
  TGI: > 100 µM
RPMI-8226 leukemia
  TGI: > 100 µM
SF-295 CNS
  TGI: > 100 µM
A549 NSCLC
  TGI: > 100 µM
UACC-62 melanoma
  TGI: > 100 µM
SK-MEL-5 melanoma
  TGI: > 100 µM
SN12C renal
  TGI: > 100 µM
M14 melanoma
  TGI: > 100 µM
CCRF-CEM leukemia
  TGI: > 100 µM
MOLT-4 leukemia
  TGI: > 100 µM
SW-620 colon
  TGI: > 100 µM
HOP-18 NSCLC
  TGI: > 100 µM
TK-10 renal
  TGI: > 100 µM
UACC-257 melanoma
  TGI: > 100 µM
K-562 leukemia
  TGI: > 100 µM
COLO 205 colon
  TGI: > 100 µM
SK-MEL-28 melanoma
  TGI: > 100 µM
DMS 114 small cell lung
  TGI: > 100 µM
SNB-75 CNS
  TGI: > 100 µM
HCT-116 colon
  TGI: > 100 µM
OVCAR-3 ovarian
  TGI: > 100 µM
SF-539 CNS
  TGI: > 100 µM
SK-OV-3 ovarian
  TGI: > 100 µM
DMS 273 small cell lung
  TGI: > 100 µM
HCT-15 colon
  TGI: > 100 µM
U251 CNS
  TGI: > 100 µM
EKVX NSCLC
  TGI: > 100 µM
CAKI-1 renal
  TGI: > 100 µM
NCI-H460 lung
  TGI: > 100 µM
HL-60(TB) leukemia
  TGI: > 100 µM
OVCAR-8 ovarian
  TGI: > 100 µM
